Test results from patent publication US20110207820A1, “NOVEL CHRYSOCHROMULINA SPECIES, METHODS AND MEDIA THEREFOR, AND PRODUCTS DERIVED THEREFROM” (UNIVERSITY OF WASHINGTON, priority 2008, published 2011).
Where two headings read alike, the source gives them in different places.

Experiments:
Alga X [1] = system: Alga X
Protocol: The mother culture is generally about one week old and has a culture density of about 2×10̂6.
Two experiments were run using 0, 8, 16, 32, and 64 mM NaCl salt concentrations in the Alga X culture medium. Alga cells were collected for lipid analysis at 0, 3, 6, and 9 days for each salt concentration.
The starting culture densities were 5.00E+03 cells/ml.
The starting culture densities were 1.00E+05 cells/ml.
Alga X cell cultures were subjected to agitation between 0 and 100 rpm.
A volume of about 37.6 ml of original stock was added to each starting flask, with the balance being medium to bring the cell cultures to a concentration of about 1.00E+06.
The original stock culture was maintained in CORE1 (distilled water based medium), plus SEM, with a concentration of about 3.19E+06 cells/ml. Volumes of 34.5 ml of original stock were added to each starting flask, with the balance being medium to bring the cell cultures to a concentration of about 1.00E+05.
The experimental AMPSO culture was maintained in a medium of Clear (human waste water), SEM, and 8 mM AMPSO pH buffer. The AMPSO plus NaHCO3 culture was maintained in a medium of Clear (human waste water), SEM, 8 mM AMPSO pH buffer, and 2 mM NaHCO3.

[2] = system: lipid bodies in algal cells; assay: BODIPY 505/515 vital staining of lipid bodies in live algal cells (fluorescence microscopy, cell sorter); assay type: cell-based, Alga X
Description: When added to a culture of algal cells, 1-10 micro-liters of BODIPY 505/515 stains intracellular lipid bodies within minutes. (Preparation of a BODIPY 505/515 stock solution is described below in EXAMPLE 30.) BODIPY 505/515 accumulates in lipidic compartments by a diffusion-trap mechanism. The dye has a high oil/water partition coefficient, which allows it to cross cell membranes and organelle membranes easily. When viewed under a fluorescent microscope, the background fluorescence of BODIPY 505/515 in the bath solution is slightly visible. Despite the slight background fluorescence, lipid bodies within live algal cells are intensely labeled and can be easily seen using fluorescein-type optics or confocal microscopy (see FIG. 8). […] This fluorescence arises from endogenous carotenoid and chlorophyll molecules located within the chloroplasts.
Fluorescently labeled cells with large lipid bodies can be isolated using the fluorescent cell sorter and used to successfully seed new algal cultures. Fluorescently labeled cells have a signal/noise ratio of 50-200 above background fluorescence, depending on the BODIPY 505/515 dye concentration used. […] BODIPY 505/515 can be used to characterize the diurnal rhythm of lipid body size within algal cells or decline in lipid quantity per cell as a culture moves from one life history phase to another. […]

[3] = system: Single-cell and filamentous species of algae; assay: Algal growth in the continuous presence of the dye; assay type: cell-based; conditions: micromolar concentrations, for days (data not shown)
Alga X [4] = assay: Fatty acid content and fatty acid profile of Alga X cells grown in test media (GC/MS, FAME ionization detection); assay type: cell-based, Chrysochromulina sp.

Compound O=P(O)(O)OC(CO)CO [BGlycerolphosphate, beta-glycerophosphate] has a cells/mL (Alga X [1]; B-glycerolphosphate 6.45 uM (control amount), day 2) of 6.98E+05 cells/mL, a cells/mL (Alga X [1]; B-glycerolphosphate 6.45 uM (control amount), day 3) of 1.57E+06 cells/mL and a cells/mL (Alga X [1]; B-glycerolphosphate 6.45 uM (control amount), day 4) of 2.75E+06 cells/mL. For the same compound, the cells/mL (Alga X [1]; B-glycerolphosphate 6.45 uM (control amount), day 6) was 3.54E+06 cells/mL, the cells/mL (Alga X [1]; B-glycerolphosphate 6.45 uM (control amount), day 8) was 4.10E+06 cells/mL and the cells/mL (Alga X [1]; B-glycerolphosphate 6.45 uM (control amount), day 9) was 4.53E+06 cells/mL.
CC1=CC(C)=[N+]2C1=Cc1c(C)cc(C)n1[B-]2(F)F [BODIPY 505/515, 4,4-difluoro-1,3,5,7-tetramethyl-4-bora-3a,4a-diaza-s-indacene] was tested, and the “time after dye addition until fluorescently-labeled lipid bodies are visible” value ([2]; 1 micro-molar BODIPY 505/515, 0.05% DMSO) was no more than 5 min, the “signal/noise ratio of labeled cells above background fluorescence” value ([2]; depending on dye concentration) was 50-200 and the “growth of algae in continuous presence of the dye” value [3] was “continue to grow well”.
With O=P([O-])(O)O.[K+] [KH2PO4] the fatty acid productivity (Alga X [4]; increasing KH2PO4, by day 6) was “increases slightly”.
For [Cl-].[Na+] [NaCl], the “level of NaCl at which Alga X exhibits maximum growth” value (Alga X [1]) was 8.0 mM, the “survival of Alga X cells” value (Alga X [1]) was “did not survive” and the cell growth (Alga X [1]; 32 mM salt content) was “depressed”.
CC(=O)O [acetate] showed a cells/mL (Alga X [1]; acetate 100 uM, day 0) of 1.0E+05 cells/mL, a cells/mL (Alga X [1]; acetate 100 uM, day 3) of 1.54E+06 cells/mL and a cells/mL (Alga X [1]; acetate 100 uM, day 6) of 3.27E+06 cells/mL. It also gave a cells/mL (Alga X [1]; acetate 100 uM, day 9) of 4.87E+06 cells/mL, a cells/mL (Alga X [1]; acetate 200 uM, day 0) of 1.0E+05 cells/mL and a cells/mL (Alga X [1]; acetate 200 uM, day 3) of 1.69E+06 cells/mL. The cells/mL (Alga X [1]; acetate 200 uM, day 6) was 4.02E+06 cells/mL, the cells/mL (Alga X [1]; acetate 200 uM, day 9) was 5.02E+06 cells/mL and the cells/mL (Alga X [1]; acetate 400 uM, day 0) was 1.0E+05 cells/mL. It also gave a cells/mL (Alga X [1]; acetate 400 uM, day 3) of 1.67E+06 cells/mL, a cells/mL (Alga X [1]; acetate 400 uM, day 6) of 4.44E+06 cells/mL and a cells/mL (Alga X [1]; acetate 400 uM, day 9) of 4.70E+06 cells/mL.
In the case of O=C([O-])O.[Na+] [sodium bicarbonate], the cell culture growth (Alga X [1]; 2 mM, 4 mM or 6 mM, with AMPSO pH buffer) is reported as “further enhances cell culture growth”.
With nitrogen the lipid per cell (Alga X [4]; increased nitrogen in the media) was “little affected”.
